In ChEMBL document CHEMBL6078653, “In Vitro Biological Target Screening and Colloidal Aggregation of Minor Cannabinoids” (J Nat Prod, 2024):

Assays:
[1] = target: Mu-type opioid receptor (Homo sapiens, UniProt P35372); test: Displacement of [3H]-Diprenorphine from human recombinant MOP receptor expressed in CHO-K1 cells incubated for 60 mins by radioligand binding assay; type: toxicity, cell-based
[2] = target: Histamine H1 receptor (Homo sapiens, UniProt P35367); test: Displacement of [3H]-Pyrilamine from human recombinant H1 receptor expressed in CHO-K1 cells incubated for 3 hrs by radioligand binding assay; type: toxicity, cell-based
[3] = Inhibition of human MDH incubated for 5 mins in presence of NADH by absorbance based analysis
[4] = Aggregation property of compound in PB buffer at pH 7 assessed as critical aggregation concentration by DLS assay; type: physicochemical
[5] = Aggregation property of compound in DMEM assessed as critical aggregation concentration by DLS assay; type: physicochemical
[6] = target: Sodium-dependent noradrenaline transporter (Homo sapiens, UniProt P23975); test: Displacement of [125]RTI-55 from human recombinant NET receptor expressed in MDCK cells incubated for 3 hrs by radioligand binding assay; type: toxicity, cell-based
[7] = species on record: Homo sapiens; test: Inhibition of human MDH at 100 to 200 uM incubated for 5 mins in presence of NADH and triton X-100 by absorbance based analysis relative to control; details: dose 100-200 µM
[8] = species on record: Homo sapiens; test: Inhibition of human MDH at 100 to 200 uM incubated for 5 mins in presence of NADH by absorbance based analysis relative to control; details: dose 100-200 µM
[9] = Aggregation property of compound in Tris HCL buffer at pH 7.4 assessed as critical aggregation concentration by DLS assay; type: physicochemical
[10] = target: Sodium-dependent serotonin transporter (Homo sapiens, UniProt P31645); test: Displacement of [3H]-Paroxetine from human […] cells incubated for 60 mins by radioligand binding assay; type: toxicity, cell-based
[11] = target: Sodium-dependent dopamine transporter (Homo sapiens, UniProt Q01959); test: Displacement of [125]RTI-55 from human recombinant DAT receptor expressed in CHO-S cells incubated for 3 hrs by radioligand binding assay; type: cell-based
[12] = Aggregation property of compound in PBS buffer at pH 7.4 assessed as critical aggregation concentration by DLS assay; type: physicochemical
[13] = target: Voltage-gated inwardly rectifying potassium channel KCNH2 (Homo sapiens, UniProt Q12809); test: Displacement of [3H]-Dofetilide from recombinant hERG expressed in HEK293 cells incubated for 60 mins by radioligand binding assay; type: toxicity, cell-based
[14] = target: 5-hydroxytryptamine receptor 2A (Homo sapiens, UniProt P28223); test: Displacement of [3H]ketanserin from human recombinant 5-HT2A receptor expressed in CHO-K1 cells incubated for 60 mins by radioligand binding assay; type: toxicity, cell-based
5-hydroxytryptamine receptor 2A, sequence (P28223 whole entry): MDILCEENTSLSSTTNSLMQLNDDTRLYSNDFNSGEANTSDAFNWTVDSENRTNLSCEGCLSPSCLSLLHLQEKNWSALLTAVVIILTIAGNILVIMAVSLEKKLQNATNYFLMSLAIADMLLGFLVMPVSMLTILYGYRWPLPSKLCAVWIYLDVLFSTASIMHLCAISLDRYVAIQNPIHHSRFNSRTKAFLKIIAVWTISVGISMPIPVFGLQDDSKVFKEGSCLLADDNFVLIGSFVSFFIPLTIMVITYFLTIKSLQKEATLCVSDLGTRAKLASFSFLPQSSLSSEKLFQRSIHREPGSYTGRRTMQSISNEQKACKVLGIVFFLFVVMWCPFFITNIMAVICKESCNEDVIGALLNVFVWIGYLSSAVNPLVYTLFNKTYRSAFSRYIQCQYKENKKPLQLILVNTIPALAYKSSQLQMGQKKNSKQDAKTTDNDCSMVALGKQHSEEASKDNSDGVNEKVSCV

Mu-type opioid receptor, sequence (P35372 whole entry): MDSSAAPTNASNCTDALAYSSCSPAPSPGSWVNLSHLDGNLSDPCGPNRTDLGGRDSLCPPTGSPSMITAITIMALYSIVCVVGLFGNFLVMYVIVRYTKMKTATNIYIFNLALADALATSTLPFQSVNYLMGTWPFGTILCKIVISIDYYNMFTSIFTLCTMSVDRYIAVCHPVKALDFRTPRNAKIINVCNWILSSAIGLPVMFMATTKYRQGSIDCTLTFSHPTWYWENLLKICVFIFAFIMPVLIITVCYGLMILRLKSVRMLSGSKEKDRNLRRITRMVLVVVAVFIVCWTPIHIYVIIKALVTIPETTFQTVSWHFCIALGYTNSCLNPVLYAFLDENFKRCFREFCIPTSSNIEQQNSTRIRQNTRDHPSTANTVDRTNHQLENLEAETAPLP
Sodium-dependent noradrenaline transporter, sequence (P23975 whole entry): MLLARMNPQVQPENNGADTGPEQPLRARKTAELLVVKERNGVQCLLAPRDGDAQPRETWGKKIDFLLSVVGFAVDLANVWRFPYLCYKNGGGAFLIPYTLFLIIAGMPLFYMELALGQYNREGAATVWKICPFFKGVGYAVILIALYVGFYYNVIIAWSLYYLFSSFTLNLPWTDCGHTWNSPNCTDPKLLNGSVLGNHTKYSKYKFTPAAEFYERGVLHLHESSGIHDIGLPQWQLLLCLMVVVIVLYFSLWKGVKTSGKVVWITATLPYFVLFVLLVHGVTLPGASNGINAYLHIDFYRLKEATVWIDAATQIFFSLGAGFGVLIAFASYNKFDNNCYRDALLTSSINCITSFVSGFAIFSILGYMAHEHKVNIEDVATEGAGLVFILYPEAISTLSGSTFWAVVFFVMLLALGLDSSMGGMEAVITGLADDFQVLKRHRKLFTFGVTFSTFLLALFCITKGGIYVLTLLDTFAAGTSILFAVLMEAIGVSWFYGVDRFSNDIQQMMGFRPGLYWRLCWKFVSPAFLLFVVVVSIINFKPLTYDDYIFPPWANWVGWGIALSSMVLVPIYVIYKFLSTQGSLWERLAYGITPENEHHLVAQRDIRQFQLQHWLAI
Sodium-dependent serotonin transporter, sequence (P31645 whole entry): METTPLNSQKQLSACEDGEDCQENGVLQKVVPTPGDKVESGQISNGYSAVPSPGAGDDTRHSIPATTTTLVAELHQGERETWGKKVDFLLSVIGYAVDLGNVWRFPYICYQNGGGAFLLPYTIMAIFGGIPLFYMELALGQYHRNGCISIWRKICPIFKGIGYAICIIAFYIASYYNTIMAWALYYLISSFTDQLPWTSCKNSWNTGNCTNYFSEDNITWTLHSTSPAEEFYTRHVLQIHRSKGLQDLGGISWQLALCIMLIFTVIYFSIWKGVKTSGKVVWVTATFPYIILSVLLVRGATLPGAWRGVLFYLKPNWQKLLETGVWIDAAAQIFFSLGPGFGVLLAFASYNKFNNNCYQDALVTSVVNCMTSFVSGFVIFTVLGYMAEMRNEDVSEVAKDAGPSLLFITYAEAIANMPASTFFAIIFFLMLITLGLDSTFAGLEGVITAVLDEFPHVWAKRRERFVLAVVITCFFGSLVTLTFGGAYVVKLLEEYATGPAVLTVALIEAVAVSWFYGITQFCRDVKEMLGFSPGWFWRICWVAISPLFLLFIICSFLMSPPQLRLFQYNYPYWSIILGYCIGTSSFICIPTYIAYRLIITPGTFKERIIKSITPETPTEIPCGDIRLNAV
Sodium-dependent dopamine transporter, sequence (Q01959 whole entry): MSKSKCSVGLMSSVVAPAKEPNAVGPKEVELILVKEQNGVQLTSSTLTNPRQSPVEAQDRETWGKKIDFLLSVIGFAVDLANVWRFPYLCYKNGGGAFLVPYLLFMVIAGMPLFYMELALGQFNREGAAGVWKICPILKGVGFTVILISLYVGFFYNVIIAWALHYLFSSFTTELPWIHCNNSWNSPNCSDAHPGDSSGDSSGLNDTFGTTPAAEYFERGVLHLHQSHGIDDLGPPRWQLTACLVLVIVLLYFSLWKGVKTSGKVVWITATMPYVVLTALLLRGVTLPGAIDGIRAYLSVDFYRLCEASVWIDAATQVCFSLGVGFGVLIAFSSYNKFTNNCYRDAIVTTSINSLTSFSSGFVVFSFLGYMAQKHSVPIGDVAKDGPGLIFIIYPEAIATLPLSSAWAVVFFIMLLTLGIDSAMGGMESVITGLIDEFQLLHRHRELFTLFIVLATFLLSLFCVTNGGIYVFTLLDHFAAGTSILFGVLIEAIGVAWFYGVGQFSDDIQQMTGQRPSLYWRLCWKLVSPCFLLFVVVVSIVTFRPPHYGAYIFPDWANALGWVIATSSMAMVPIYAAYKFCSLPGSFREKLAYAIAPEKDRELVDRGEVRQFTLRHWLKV
Histamine H1 receptor, sequence (P35367 whole entry): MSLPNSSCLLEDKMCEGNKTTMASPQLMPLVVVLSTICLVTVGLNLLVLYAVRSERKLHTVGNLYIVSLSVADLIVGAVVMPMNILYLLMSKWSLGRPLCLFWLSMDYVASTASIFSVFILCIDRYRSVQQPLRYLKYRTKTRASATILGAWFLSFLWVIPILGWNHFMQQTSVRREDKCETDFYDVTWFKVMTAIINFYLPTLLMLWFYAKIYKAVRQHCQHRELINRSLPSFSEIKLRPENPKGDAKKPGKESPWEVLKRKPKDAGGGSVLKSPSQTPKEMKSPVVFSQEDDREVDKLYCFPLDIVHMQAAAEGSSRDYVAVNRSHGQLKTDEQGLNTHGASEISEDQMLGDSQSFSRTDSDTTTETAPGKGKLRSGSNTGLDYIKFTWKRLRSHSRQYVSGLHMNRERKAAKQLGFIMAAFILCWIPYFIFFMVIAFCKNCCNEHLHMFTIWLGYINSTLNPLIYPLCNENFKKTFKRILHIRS
Voltage-gated inwardly rectifying potassium channel KCNH2, sequence (Q12809 whole entry): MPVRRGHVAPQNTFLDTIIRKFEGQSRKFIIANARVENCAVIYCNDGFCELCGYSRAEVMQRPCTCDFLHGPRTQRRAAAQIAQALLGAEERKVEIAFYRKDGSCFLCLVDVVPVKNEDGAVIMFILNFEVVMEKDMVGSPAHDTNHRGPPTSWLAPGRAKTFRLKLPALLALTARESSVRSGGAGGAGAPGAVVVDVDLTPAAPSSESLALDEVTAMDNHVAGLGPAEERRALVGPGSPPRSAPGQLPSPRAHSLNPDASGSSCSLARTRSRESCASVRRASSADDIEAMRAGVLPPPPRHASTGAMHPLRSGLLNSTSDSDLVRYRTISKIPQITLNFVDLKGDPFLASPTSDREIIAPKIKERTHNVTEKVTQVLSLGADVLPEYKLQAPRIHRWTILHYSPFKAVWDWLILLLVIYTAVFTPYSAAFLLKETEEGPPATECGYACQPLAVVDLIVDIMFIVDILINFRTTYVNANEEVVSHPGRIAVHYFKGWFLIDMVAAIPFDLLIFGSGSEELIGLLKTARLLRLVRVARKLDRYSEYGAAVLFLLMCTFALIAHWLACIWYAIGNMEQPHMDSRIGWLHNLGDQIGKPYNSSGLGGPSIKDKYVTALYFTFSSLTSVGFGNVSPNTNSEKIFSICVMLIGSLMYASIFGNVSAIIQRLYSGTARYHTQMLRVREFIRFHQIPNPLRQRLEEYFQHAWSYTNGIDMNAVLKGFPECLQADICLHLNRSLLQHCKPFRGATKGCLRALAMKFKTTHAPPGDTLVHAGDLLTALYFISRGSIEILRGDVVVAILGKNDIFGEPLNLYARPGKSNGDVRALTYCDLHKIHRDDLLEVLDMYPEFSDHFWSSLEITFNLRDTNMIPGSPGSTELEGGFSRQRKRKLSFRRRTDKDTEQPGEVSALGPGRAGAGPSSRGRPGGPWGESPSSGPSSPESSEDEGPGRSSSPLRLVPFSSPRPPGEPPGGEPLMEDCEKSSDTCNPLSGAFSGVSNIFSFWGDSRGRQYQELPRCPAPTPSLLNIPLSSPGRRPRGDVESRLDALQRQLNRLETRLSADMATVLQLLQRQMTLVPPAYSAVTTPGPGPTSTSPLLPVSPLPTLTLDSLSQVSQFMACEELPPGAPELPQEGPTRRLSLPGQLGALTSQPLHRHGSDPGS

Compound | IC50 [1] | IC50 [2] | IC50 [3] | CAC [4] | CAC [5] | IC50 [6] | inhibition [7] | inhibition [8] | CAC [9] | IC50 [10] | IC50 [11] | CAC [12] | IC50 [13] | IC50 [14]
CCCCCc1cc2c(c(O)c1C(=O)O)C=CC(C)(CCC=C(C)C)O2 (stereo unspecified) | 10.8 µM | 5.7 µM | 30.2 µM | 100 µM | 100 µM | 3.22 µM | 100% | 100% | – | – | – | – | – | –
CCCCCc1cc(O)c2c(c1)OC(C)(CCC=C(C)C)C=C2 (stereo unspecified) [CANNABICHROMENE] | – | – | 1 µM | 5.6 µM | 1.6 µM | 1.95 µM | 100% | 100% | 0.8 µM | 6.26 µM | 0.74 µM | 0.2 µM | – | –
C=C(C)[C@@H]1CCC(C)=C[C@H]1c1c(O)cc(CCCCC)c(C(=O)O)c1O [CANNABIDIOLIC ACID] | – | – | 46.8 µM | 60.3 µM | – | – | 100% | 100% | – | – | – | – | – | –
C=C(C)[C@@H]1CCC(C)=C[C@H]1c1c(O)cc(CCC)cc1O [CANNABIDIVARIN] | 6.42 µM | – | 11 µM | 31.6 µM | 100 µM | 2.66 µM | 100% | 100% | 100 µM | – | 3 µM | 31.6 µM | – | –
CCCCCc1cc(O)c(C/C=C(\C)CCC=C(C)C)c(O)c1C(=O)O [CANNABIGEROLIC ACID] | – | – | 28.8 µM | 12 µM | – | – | 100% | 100% | – | – | 3.88 µM | – | – | –
CCCCCc1cc(O)c(C/C=C(\C)CCC=C(C)C)c(O)c1 [CANNABIGEROL] | 1.38 µM | – | 8.8 µM | 20.9 µM | 16.7 µM | 2.45 µM | 100% | 100% | 20.3 µM | 1.66 µM | 0.95 µM | 100 µM | 3.06 µM | 1.88 µM
CCCCCc1cc(O)c2c(c1)OC(C)(C)c1ccc(C)cc1-2 [CANNABINOL] | 3.21 µM | – | 3.2 µM | 12.9 µM | 4.8 µM | 1.15 µM | 100% | 100% | 10.4 µM | 3.35 µM | – | 23.1 µM | – | 4.89 µM
